The record followed here is PubChem BioAssay AID1259407 (Chemical Carcinogenesis Research Information System (CCRIS), 2018).

The source made the active and inactive calls. How the calls were made is not given here.

In the data set the test system is CCRIS mutagenicity, Ames/micronucleus/aberration tests. Kind of data set: CCRIS mutagenicity studies.
[1] abbreviates: Test System: AMES SALMONELLA TYPHIMURIUM, Strain/Indicator: TA97, Metabolic Activation: NONE, Method: PREINCUBATION
[2] abbreviates: Test System: AMES SALMONELLA TYPHIMURIUM, Strain/Indicator: TA98, Metabolic Activation: NONE, Method: PREINCUBATION
[3] abbreviates: Test System: AMES SALMONELLA TYPHIMURIUM, Strain/Indicator: TA98, Metabolic Activation: NONE, Method: STANDARD PLATE.
The mark [4] stands for this setting: Test System: AMES SALMONELLA TYPHIMURIUM, Strain/Indicator: TA100, Metabolic Activation: NONE, Method: PREINCUBATION
[5] abbreviates: Test System: AMES SALMONELLA TYPHIMURIUM, Strain/Indicator: TA100, Metabolic Activation: NONE, Method: STANDARD PLATE.
Setting [6] is: Test System: AMES SALMONELLA TYPHIMURIUM, Strain/Indicator: TA1535, Metabolic Activation: NONE, Method: PREINCUBATION

Consider `CCCOC(=O)c1cc(O)c(O)c(O)c1`, for which the mutagenic call was “inactive; negative” (End Point: IN VITRO CHROMOSOMAL ABERRATIONS, Test System: CHO CELLS, Metabolic Activation: RAT, LIVER, S-9, AROCLOR 1254); “inactive; negative” under setting [1]; “inactive; negative” (Test System: AMES SALMONELLA TYPHIMURIUM, Strain/Indicator: TA97, Metabolic Activation: S-9, Method: PREINCUBATION); “inactive; negative” under setting [2]; “inactive; negative” under setting [3]; “inactive; negative” (Test System: AMES SALMONELLA TYPHIMURIUM, Strain/Indicator: TA98, Metabolic Activation: RAT LIVER S-9, Method: PREINCUBATION). Moreover, the mutagenic call reads like this: (Test System: AMES SALMONELLA TYPHIMURIUM, Strain/Indicator: TA98, Metabolic Activation: RAT, LIVER, S-9, AROCLOR 1254, Method: STANDARD PLATE) “inactive; negative”; under setting [4], “inactive; negative”; under setting [5], “inactive; negative”; (Test System: AMES SALMONELLA TYPHIMURIUM, Strain/Indicator: TA100, Metabolic Activation: RAT LIVER S-9, Method: PREINCUBATION) “inactive; negative”; (Test System: AMES SALMONELLA TYPHIMURIUM, Strain/Indicator: TA100, Metabolic Activation: RAT, LIVER, S-9, AROCLOR 1254, Method: STANDARD PLATE) “inactive; negative”; (Test System: AMES SALMONELLA TYPHIMURIUM, Strain/Indicator: TA102, Metabolic Activation: NONE, Method: PREINCUBATION) “inactive; negative”. Besides, the mutagenic call (Test System: AMES SALMONELLA TYPHIMURIUM, Strain/Indicator: TA102, Metabolic Activation: S-9, Method: PREINCUBATION) is “active; positive”; the mutagenic call (Test System: AMES SALMONELLA TYPHIMURIUM, Strain/Indicator: TA1535, Metabolic Activation: NONE, Method: STANDARD PLATE) is “inactive; negative”; the mutagenic call (Test System: AMES SALMONELLA TYPHIMURIUM, Strain/Indicator: TA1535, Metabolic Activation: RAT, LIVER, S-9, AROCLOR 1254, Method: STANDARD PLATE) was “inactive; negative”; the mutagenic call (Test System: AMES SALMONELLA TYPHIMURIUM, Strain/Indicator: TA1537, Metabolic Activation: NONE, Method: STANDARD PLATE) is “inactive; negative”; the mutagenic call (Test System: AMES SALMONELLA TYPHIMURIUM, Strain/Indicator: TA1537, Metabolic Activation: RAT, LIVER, S-9, AROCLOR 1254, Method: STANDARD PLATE) was “inactive; negative”; the mutagenic call (Test System: AMES SALMONELLA TYPHIMURIUM, Strain/Indicator: TA1538, Metabolic Activation: NONE, Method: STANDARD PLATE) was “inactive; negative”. Moreover, the mutagenic call is, setting by setting: (Test System: AMES SALMONELLA TYPHIMURIUM, Strain/Indicator: TA1538, Metabolic Activation: RAT, LIVER, S-9, AROCLOR 1254, Method: STANDARD PLATE) “inactive; negative”; (Test System: Ames Salmonella typhimurium, Strain/Indicator: TA102, Metabolic Activation: None, Method: Preincubation) “inactive; negative”; (Test System: Ames Salmonella typhimurium, Strain/Indicator: TA102, Metabolic Activation: Rat, Liver, S-9, Aroclor 1254 in 0.154 M KCl, Method: Preincubation) “inactive; negative”; (Test System: E. COLI, Strain/Indicator: WP2, Metabolic Activation: NONE, Method: STANDARD PLATE) “inactive; negative”; (Test System: E. COLI, Strain/Indicator: WP2, Metabolic Activation: RAT, LIVER, S-9, AROCLOR 1254, Method: STANDARD PLATE) “inactive; negative”.

For the compound `C=C(C)[C@@]12OC3(c4ccccc4)O[C@@H]1[C@@H]1[C@@H]4OC4(CO)[C@@H](O)[C@]4(O)C(=O)C(C)=C[C@H]4[C@@]1(O3)[C@H](C)[C@H]2OC(=O)/C=C/C=C/c1ccccc1` (some centres not stated), the mutagenic call runs as follows: (Test System: AMES SALMONELLA TYPHIMURIUM, Strain/Indicator: TA97, Metabolic Activation: HAMSTER, LIVER, S-9, AROCLOR 1254 (10 OR 30%), Method: PREINCUBATION) “inactive; negative”; under setting [1], “inactive; negative”; (Test System: AMES SALMONELLA TYPHIMURIUM, Strain/Indicator: TA97, Metabolic Activation: RAT, LIVER, S-9, AROCLOR 1254 (10 OR 30%), Method: PREINCUBATION) “inactive; negative”; (Test System: AMES SALMONELLA TYPHIMURIUM, Strain/Indicator: TA98, Metabolic Activation: HAMSTER, LIVER, S-9, AROCLOR 1254 (10 OR 30%), Method: PREINCUBATION) “inactive; negative”; under setting [2], “inactive; negative”; (Test System: AMES SALMONELLA TYPHIMURIUM, Strain/Indicator: TA98, Metabolic Activation: RAT, LIVER, S-9, AROCLOR 1254 (10 OR 30%), Method: PREINCUBATION) “inactive; negative”. The mutagenic call was “inactive; negative” (Test System: AMES SALMONELLA TYPHIMURIUM, Strain/Indicator: TA100, Metabolic Activation: HAMSTER, LIVER, S-9, AROCLOR 1254 (10 OR 30%), Method: PREINCUBATION); “inactive; negative” under setting [4]; “inactive; negative” (Test System: AMES SALMONELLA TYPHIMURIUM, Strain/Indicator: TA100, Metabolic Activation: RAT, LIVER, S-9, AROCLOR 1254 (10 OR 30%), Method: PREINCUBATION); “inactive; negative” (Test System: AMES SALMONELLA TYPHIMURIUM, Strain/Indicator: TA1535, Metabolic Activation: HAMSTER, LIVER, S-9, AROCLOR 1254 (10 OR 30%), Method: PREINCUBATION); “inactive; negative” under setting [6]; “inactive; negative” (Test System: AMES SALMONELLA TYPHIMURIUM, Strain/Indicator: TA1535, Metabolic Activation: RAT, LIVER, S-9, AROCLOR 1254 (10 OR 30%), Method: PREINCUBATION).

As to `CCN(CC)CCCN(c1ccccc1)C1Cc2ccccc2C1`, the mutagenic call by setting is: under setting [2], “inactive; negative”; (Test System: AMES SALMONELLA TYPHIMURIUM, Strain/Indicator: TA98, Metabolic Activation: S-9, Method: PREINCUBATION) “inactive; negative”; under setting [4], “inactive; negative”; (Test System: AMES SALMONELLA TYPHIMURIUM, Strain/Indicator: TA100, Metabolic Activation: S-9, Method: PREINCUBATION) “inactive; negative”; under setting [6], “inactive; negative”; (Test System: AMES SALMONELLA TYPHIMURIUM, Strain/Indicator: TA1535, Metabolic Activation: S-9, Method: PREINCUBATION) “inactive; negative”. Also, the mutagenic call reads like this: (Test System: AMES SALMONELLA TYPHIMURIUM, Strain/Indicator: TA1537, Metabolic Activation: NONE, Method: PREINCUBATION) “inactive; negative”; (Test System: AMES SALMONELLA TYPHIMURIUM, Strain/Indicator: TA1537, Metabolic Activation: S-9, Method: PREINCUBATION) “inactive; negative”; (Test System: AMES SALMONELLA TYPHIMURIUM, Strain/Indicator: TA1538, Metabolic Activation: NONE, Method: PREINCUBATION) “inactive; negative”; (Test System: AMES SALMONELLA TYPHIMURIUM, Strain/Indicator: TA1538, Metabolic Activation: S-9, Method: PREINCUBATION) “inactive; negative”; (Test System: E. COLI, Strain/Indicator: WP2 UVRA, Metabolic Activation: NONE, Method: PREINCUBATION) “inactive; negative”; (Test System: E. COLI, Strain/Indicator: WP2 UVRA, Metabolic Activation: S-9, Method: PREINCUBATION) “inactive; negative”.

Regarding `c1ccc2c(c1)-c1cc3ccccc3cc1[C@H]1O[C@@H]21`, the mutagenic call runs as follows: under setting [2], “active; positive”; under setting [3], “active; positive”; under setting [5], “active; positive”; (Test System: CHINESE HAMSTER V-79, Strain/Indicator: V-79/8-AZAGUANINE, Metabolic Activation: NONE, Method: STANDARD PLATE) “active; positive”; (Test System: UDS HUMAN FIBROBLASTS, Strain/Indicator: THY INCORP (NON-S-PHASE), Metabolic Activation: NONE, Method: AUTORADIOGRAPHY) “active; positive”.
